Results as given in patent publication US9556191B2, “Aminoquinazoline derivatives and their salts and methods of use thereof” (SUNSHINE LAKE PHARMA CO., LTD, priority 2013, dated 2017).

How the values were obtained:
[1] = molecular target: EGFR (human epidermal growth factor receptor) (Homo sapiens (Human), UniProt P00533); assay: In vitro kinase inhibitory activity, EGFR; type: biochemical
Experimental: (§1) Stop buffer was prepared from 100 mM HEPES, pH 7.5, 0.015% Brij-35, 0.2% Coating Reagent #3, and 50 mM EDTA.
(§2) Kinase reaction was performed according to the following procedures: (1) 2.5× kinase solution was prepared by adding kinase into 1× kinase base buffer; (2) 2.5× peptide solution was prepared by adding FAM-labeled peptide and ATP into 1× kinase base buffer; (3) 2.5× kinase solution (10 μL) was added to each well of the 384-well assay plate containing 5 μL of compound in 10% DMSO and then the assay plate was incubated at room temperature for 10 minutes; (4) 2.5× peptide solution (10 μL) was added to each well of the 384-well assay plate; and (5) stop buffer (25 μL) was added to stop the kinase reaction after incubation at 28° C. for a specified period of time.
(§3) Multifunctional microplate reader (BMG LABTECH, PHER Astar FS) with a 320 nm excitation wavelength was used to read and collected the data of by absorbing light at […], which was converted from the rate of 665 signal/620 signal.
(§4) Conversion data were copied, and then converted to inhibition values with the following formula: percent inhibition=(max−conversion)/(max−min)*100 where “max” stands for the DMSO control value, “conversion” stands for the sample value and “[…]” stands for the no-kinase control value. The data were fitted in XLfit to obtain IC50 values.

[2] = molecular target: HER2 (human epidermal growth factor receptor 2) (Homo sapiens (Human), UniProt P04626); assay: In vitro kinase inhibitory activity, HER-2; type: biochemical
Experimental: as §1
as §2, with “time. […]” for “time.”
as §4

[3] = molecular target: EGFR T790M (human epidermal growth factor receptor T790M mutation) (Homo sapiens (Human), UniProt P00533, T790M); assay: In vitro kinase inhibitory activity, EGFR T790M; type: biochemical
Experimental: as §1, §2, §3, §4

[4] = Rat PK (pharmacokinetics after iv and po administration); type: in vivo; details: male, SD, plasma; for Vd: read-out: Vss; for bioavailability: po 5 vs iv 2 (g/kg [sic]; mg/kg in method), read-out: F (bioavailability)
Excerpt: Materials used include Propranolol (internal standard), methyl alcohol, ammonium acetate, K2EDTA (potassium ethylenediaminetetraacetate), methane acid, acetonitrile, MTBE (methyl tert-butyl ether), Cremophor EL (polyoxyethylated castor oil), KolliphorHS 15 (polyethylene glycol 12-hydroxystearate), DMSO (dimethylsulfoxide), PEG400 (polyethylene glycol 400) and SD rat (male, 180-220 g, 7-8 weeks old, purchased from Hunan Slack King of Laboratory Animal Co., Ltd.), all of which are commercially available.
Each test compound prepared in above examples was completely dissolved in a mixture of 5% DMSO, 5% KolliphorHS 15 and 90% saline.
(1) The test sample stock solution was prepared by dissolving an accurately weighed test sample in DMSO followed by dilution to the concentration of 1 mg/mL with acetonitrile. The stock solution was stored under the condition of −20° C. for later use.
(2) Internal standard solution was prepared by diluting a certain amount of the Propranolol stock solution in the concentration of 1 mg/mL to 100 ng/mL with water.
Samples treated with liquid-liquid extraction and chromatographic separation were analyzed by triple quadrupole tandem mass spectrometer in multiple reaction monitoring (MRM) mode for quantitative analysis.
Pretreatment of plasma sample was performed according to the following procedures: (1) plasma sample (30 μL) was precisely measured, and internal standard (250 μL) was then added to the plasma sample which was then mixed by vortexing; (2) the sample was extracted once with 1 mL of MTBE and then centrifuged at 13000 rpm for 2 minutes at 4° C.; (3) supernatant (800 μL) was aspirated and dried with 96 holes nitrogen gas blowing; (4) the residue was dissolved with 150 μL of a mixture of methanol and water (v/v=1/1) and then mixed by vortexing; and (5) sampling: sample quantity was 8 μL.
Preparation of standard sample was performed according to the following procedures: (1) a pre-determined amount of the compound stock solution was precisely measured, and then was diluted to standard series of solution with acetonitrile; (2) each of the standard solution (20 μL) prepared above was precisely measured and to each was added 180 μL of blank plasma; (3) each sample was mixed by vortexing to obtain series of standard samples in which the plasma concentration was 3, 5, 10, 30, 100, 300, 1000, 3000, 5000 or 10000 ng/mL; and (4) standard curve was established.
The content of each test compound in rat plasma after administration was determined by LC/MS/MS.
Noncompartmental analysis to calculate pharmacokinetic parameters was performed with WinNonlin 6.1 software.

[5] = iv(2 g/kg) [sic], method says 2 mg/kg
[6] = po(5 g/kg) [sic], method says 5 mg/kg

EGFR T790M (human epidermal growth factor receptor T790M mutation), sequence (P00533 25-1210 T790M): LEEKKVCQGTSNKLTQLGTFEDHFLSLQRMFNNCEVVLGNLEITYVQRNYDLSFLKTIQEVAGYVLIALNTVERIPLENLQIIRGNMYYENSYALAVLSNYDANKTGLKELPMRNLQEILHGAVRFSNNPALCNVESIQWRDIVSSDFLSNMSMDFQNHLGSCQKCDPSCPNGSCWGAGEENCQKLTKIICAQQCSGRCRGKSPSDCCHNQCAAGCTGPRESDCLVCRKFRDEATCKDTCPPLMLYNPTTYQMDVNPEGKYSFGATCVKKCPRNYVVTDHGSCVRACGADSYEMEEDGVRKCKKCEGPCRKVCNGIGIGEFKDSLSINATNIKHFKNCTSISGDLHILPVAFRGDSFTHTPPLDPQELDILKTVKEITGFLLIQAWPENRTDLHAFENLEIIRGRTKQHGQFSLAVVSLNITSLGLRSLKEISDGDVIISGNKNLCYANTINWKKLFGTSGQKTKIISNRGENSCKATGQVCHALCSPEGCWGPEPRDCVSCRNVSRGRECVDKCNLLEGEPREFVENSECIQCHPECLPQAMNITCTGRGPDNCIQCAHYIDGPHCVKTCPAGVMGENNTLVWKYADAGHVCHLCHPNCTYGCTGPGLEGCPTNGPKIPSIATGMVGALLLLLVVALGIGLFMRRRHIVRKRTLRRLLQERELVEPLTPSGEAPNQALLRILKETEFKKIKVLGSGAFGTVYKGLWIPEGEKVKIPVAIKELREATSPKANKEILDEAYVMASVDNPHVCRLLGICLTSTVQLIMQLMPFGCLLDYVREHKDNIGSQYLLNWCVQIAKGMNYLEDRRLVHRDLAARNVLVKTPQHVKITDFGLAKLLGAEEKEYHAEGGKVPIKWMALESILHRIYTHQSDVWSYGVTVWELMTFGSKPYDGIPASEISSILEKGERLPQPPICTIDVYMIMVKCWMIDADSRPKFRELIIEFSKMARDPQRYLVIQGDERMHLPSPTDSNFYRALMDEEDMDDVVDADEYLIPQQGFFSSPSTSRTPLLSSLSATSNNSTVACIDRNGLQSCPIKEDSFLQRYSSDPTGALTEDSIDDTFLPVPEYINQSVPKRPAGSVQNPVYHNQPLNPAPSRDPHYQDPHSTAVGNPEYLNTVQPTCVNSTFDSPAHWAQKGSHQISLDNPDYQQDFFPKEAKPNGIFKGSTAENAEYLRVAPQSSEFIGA
HER2 (human epidermal growth factor receptor 2), sequence (P04626 23-1255): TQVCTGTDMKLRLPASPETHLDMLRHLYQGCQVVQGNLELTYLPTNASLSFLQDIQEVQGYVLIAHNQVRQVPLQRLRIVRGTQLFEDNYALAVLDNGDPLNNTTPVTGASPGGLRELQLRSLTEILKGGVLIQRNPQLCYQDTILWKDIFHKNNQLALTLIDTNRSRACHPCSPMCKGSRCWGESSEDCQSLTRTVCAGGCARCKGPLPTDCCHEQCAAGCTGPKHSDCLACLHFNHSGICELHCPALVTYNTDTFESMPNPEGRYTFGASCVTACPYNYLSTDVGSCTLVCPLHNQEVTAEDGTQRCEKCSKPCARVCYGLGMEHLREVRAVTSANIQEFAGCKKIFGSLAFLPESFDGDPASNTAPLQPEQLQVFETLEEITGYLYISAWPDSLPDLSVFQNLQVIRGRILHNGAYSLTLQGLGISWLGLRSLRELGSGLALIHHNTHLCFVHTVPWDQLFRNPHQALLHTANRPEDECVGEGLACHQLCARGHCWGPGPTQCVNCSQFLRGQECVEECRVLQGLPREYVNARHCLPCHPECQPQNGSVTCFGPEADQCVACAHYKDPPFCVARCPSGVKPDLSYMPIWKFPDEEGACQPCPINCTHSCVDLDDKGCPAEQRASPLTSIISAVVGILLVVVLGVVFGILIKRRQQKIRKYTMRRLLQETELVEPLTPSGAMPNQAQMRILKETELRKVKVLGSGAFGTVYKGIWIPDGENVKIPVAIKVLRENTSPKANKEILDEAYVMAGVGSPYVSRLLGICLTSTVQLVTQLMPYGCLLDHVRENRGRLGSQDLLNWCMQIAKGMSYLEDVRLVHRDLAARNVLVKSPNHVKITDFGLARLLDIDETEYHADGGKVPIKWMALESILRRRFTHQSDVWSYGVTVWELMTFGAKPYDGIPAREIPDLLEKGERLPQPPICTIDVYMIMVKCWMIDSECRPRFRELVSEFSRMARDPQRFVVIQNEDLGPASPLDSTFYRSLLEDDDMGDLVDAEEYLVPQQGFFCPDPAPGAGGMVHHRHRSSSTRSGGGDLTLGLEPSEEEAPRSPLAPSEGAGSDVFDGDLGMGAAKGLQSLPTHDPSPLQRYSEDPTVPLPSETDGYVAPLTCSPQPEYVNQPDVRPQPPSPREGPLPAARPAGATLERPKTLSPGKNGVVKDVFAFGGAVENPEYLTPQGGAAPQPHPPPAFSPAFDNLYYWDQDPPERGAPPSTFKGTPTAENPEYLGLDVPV
EGFR (human epidermal growth factor receptor), sequence (P00533 25-1210): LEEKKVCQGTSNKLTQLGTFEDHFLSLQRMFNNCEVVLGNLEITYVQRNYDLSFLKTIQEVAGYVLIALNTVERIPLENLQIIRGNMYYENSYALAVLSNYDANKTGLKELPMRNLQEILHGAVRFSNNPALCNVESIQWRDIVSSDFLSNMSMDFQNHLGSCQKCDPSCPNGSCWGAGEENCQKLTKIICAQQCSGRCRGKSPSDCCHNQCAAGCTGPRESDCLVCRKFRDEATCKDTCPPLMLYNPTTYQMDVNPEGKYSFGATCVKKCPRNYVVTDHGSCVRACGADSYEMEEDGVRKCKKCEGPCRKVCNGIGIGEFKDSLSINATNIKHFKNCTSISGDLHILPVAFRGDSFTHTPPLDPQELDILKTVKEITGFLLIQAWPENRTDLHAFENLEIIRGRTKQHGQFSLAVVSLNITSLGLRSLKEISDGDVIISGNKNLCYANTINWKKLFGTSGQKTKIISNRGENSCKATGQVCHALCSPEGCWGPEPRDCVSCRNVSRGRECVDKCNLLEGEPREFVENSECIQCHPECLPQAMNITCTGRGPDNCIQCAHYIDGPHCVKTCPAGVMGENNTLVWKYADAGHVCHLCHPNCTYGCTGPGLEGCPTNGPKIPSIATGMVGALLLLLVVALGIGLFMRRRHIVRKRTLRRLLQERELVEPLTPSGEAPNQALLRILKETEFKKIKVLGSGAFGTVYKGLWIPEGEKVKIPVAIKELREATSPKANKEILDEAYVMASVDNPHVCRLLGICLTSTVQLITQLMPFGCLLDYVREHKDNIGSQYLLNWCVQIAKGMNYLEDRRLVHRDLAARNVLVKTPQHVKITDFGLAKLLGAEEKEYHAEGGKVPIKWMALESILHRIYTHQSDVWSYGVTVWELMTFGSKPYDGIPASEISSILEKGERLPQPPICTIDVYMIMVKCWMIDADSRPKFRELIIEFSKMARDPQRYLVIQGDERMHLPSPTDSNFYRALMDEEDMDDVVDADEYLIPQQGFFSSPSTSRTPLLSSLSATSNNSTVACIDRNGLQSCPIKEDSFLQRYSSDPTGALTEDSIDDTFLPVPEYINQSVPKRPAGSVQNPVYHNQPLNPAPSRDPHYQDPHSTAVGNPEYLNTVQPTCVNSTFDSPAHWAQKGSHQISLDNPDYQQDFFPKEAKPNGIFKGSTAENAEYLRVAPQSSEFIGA

Row | SMILES | IC50 [1] [nM] | IC50 [2] [nM] | IC50 [3] [nM] | AUC(0-t) [4, 5] [µg·h/mL] | Cmax [4, 5] [µg/mL] | half-life [4, 5] [h] | Vd [4, 5] [L/kg] | bioavailability [4] [%] | AUC(0-t) [4, 6] [µg·h/mL] | Cmax [4, 6] [µg/mL] | half-life [4, 6] [h]
1 | O=C(/C=C/CN1C[C@@H]2OCCO[C@@H]2C1)Nc1cc2c(Nc3ccc(F)c(Cl)c3)ncnc2cc1OCC(F)(F)F [Example 7, (E)-N-(4-((3-Chloro-4-fluorophenyl)amino)-7-(2,2,2-trifluoroethoxy)quinazolin-6-yl)-4-((4aR,7aS)-tetrahydro-2H-[1,4]dioxino[2,3-c]pyrrol-6(3H)-yl)but-2-enamide] | 15.4 | 44 | 22.6 |  |  |  |  |  |  |  | 
2 | CCOc1cc2ncnc(Nc3ccc(OCc4ccccn4)c(Cl)c3)c2cc1NC(=O)/C=C/CN1C[C@@H]2OCCO[C@@H]2C1 [Example 24, (E)-N-(4-((3-Chloro-4-(pyridin-2-ylmethoxy)phenyl)amino)-7-ethoxyquinazolin-6-yl)-4-((4aR,7aS)-tetrahydro-2H-[1,4]dioxino[2,3-c]pyrrol-6(3H)-yl)but-2-enamide] | 18.4 | 1.7 | 4.2 | 10.5 | 2.93 | 3.59 | 0.79 | 87.1 | 22.9 | 2.77 | 3.49
3 | [2H]C([2H])([2H])Oc1cc2ncnc(Nc3ccc(F)c(Cl)c3)c2cc1NC(=O)/C=C/CN1C[C@@H]2OCCO[C@@H]2C1 [Example 20, (E)-N-(4-((3-Chloro-4-fluorophenyl)amino)-7-(methoxy-D3)quinazolin-6-yl)-4-((4aR,7aS)-tetrahydro 2H-[1,4]dioxino[2,3-c]pyrrol-6(3H)-yl)but-2-enamide] |  |  |  | 1.45 | 0.868 | 2.22 | 3.71 |  | 3.19 | 0.336 | 3.6
4 | CCOc1cc2ncnc(Nc3ccc(OCc4cccc(F)c4)c(Cl)c3)c2cc1NC(=O)/C=C/CN1C[C@@H]2OCCO[C@@H]2C1 [Example 30, (E)-N-(4-((3-Chloro-4-((3-fluorobenzyl)oxy)phenyl)amino)-7-ethoxyquinazolin-6-yl)-4-((4aR,7aS)-tetrahydro-2H-[1,4]dioxino[2,3-c]pyrrol-6(3H)-yl)but-2-enamide] | 31.9 | 6.6 | 133 |  |  |  |  |  |  |  | 
5 | COCCOc1cc2ncnc(Nc3ccc(F)c(Cl)c3)c2cc1NC(=O)/C=C/CN1C[C@@H]2OCCO[C@@H]2C1 [Example 6, (E)-N-(4-((3-Chloro-4-fluorophenyl)amino)-7-(2-methoxyethoxy)quinazolin-6-yl)-4-((4aR,7aS)-tetrahydro-2H-[1,4]dioxino[2,3-c]pyrrol-6(3H)-yl)but-2-enamide] | 1.8 | 10.4 | 8.7 |  |  |  |  |  |  |  | 
6 | O=C(/C=C/CN1C[C@@H]2OCCO[C@@H]2C1)Nc1ccc2ncnc(Nc3ccc(OCc4cccc(F)c4)c(Cl)c3)c2c1 [Example 21, (E)-N-(4-((3-Chloro-4-((3-fluorobenzyl)oxy)phenyl)amino)quinazolin-6-yl)-4-((4aR,7aS)-tetrahydro-2H-[1,4]dioxino[2,3-c]pyrrol-6(3H)-yl)but-2-enamide] | 15 | 3.5 | 317 |  |  |  |  |  |  |  | 
7 | O=C(/C=C/CN1C[C@@H]2OCCO[C@@H]2C1)Nc1ccc2ncnc(Nc3ccc(OCc4ccccn4)c(Cl)c3)c2c1 [Example 22, (E)-N-(4-((3-Chloro-4-(pyridin-2-ylmethoxy)phenyl)amino)quinazolin-6-yl)-4-((4aR,7aS)-tetrahydro-2H-[1,4]dioxino[2,3-c]pyrrol-6(3H)-yl)but-2-enamide] | 22 | 1.9 | 47.3 |  |  |  |  |  |  |  | 
8 | CCOc1cc2ncnc(Nc3ccc(F)c(Cl)c3)c2cc1NC(=O)/C=C/CN1C[C@@H]2OCCO[C@@H]2C1 [Example 3, (E)-N-(4-((3-Chloro-4-fluorophenyl)amino)-7-ethoxyquinazolin-6-yl)-4-((4aR,7aS)-tetrahydro-2H-[1,4]dioxin[2,3-c]pyrrol-6(3H)-yl)but-2-enamide] | 6.4 | 8.1 | 6.2 |  |  |  |  |  |  |  | 
9 | O=C(/C=C/CN1C[C@@H]2OCCO[C@@H]2C1)Nc1cc2c(Nc3ccc(F)c(Cl)c3)ncnc2cc1O[C@H]1CCOC1 [Example 5, (E)-N-(4-((3-Chloro-4-fluorophenyl)amino)-7-(((S)-tetrahydrofuran-3-yl)oxy)quinazolin-6-yl)-4-((4aR,7aS)-tetrahydro-2H-[1,4]dioxino[2,3-c]pyrrol-6(3H)-yl)but-2-enamide] | 3.6 | 11.7 | 6.8 |  |  |  |  |  |  |  | 
10 | COc1cc2ncnc(Nc3ccc(F)c(Cl)c3F)c2cc1NC(=O)/C=C/CN1C[C@@H]2OCCO[C@@H]2C1 [Example 35, (E)-N-(4-((3-Chloro-2,4-difluorophenyl)amino)-7-methoxyquinazolin-6-yl)-4-((4aR,7aS)-tetrahydro-2H-[1,4]dioxino[2,3-c]pyrrol-6(3H)-yl)but-2-enamide] | 0.9 | 17.8 | 20 |  |  |  |  |  |  |  | 
11 | COc1cc2ncnc(Nc3ccc(OCc4cccc(F)c4)c(Cl)c3)c2cc1NC(=O)/C=C/CN1C[C@@H]2OCCO[C@@H]2C1 [Example 29, (E)-N-(4-((3-Chloro-4-((3-fluorobenzyl)oxy)phenyl)amino)-7-methoxyquinazolin-6-yl)-4-((4aR,7aS)-tetrahydro-2H-[1,4]dioxino[2,3-c]pyrrol-6(3H)-yl)but-2-enamide] |  | 3.7 |  |  |  |  |  |  |  |  | 
12 | COCCOc1cc2ncnc(Nc3ccc(Cl)c(Cl)c3F)c2cc1NC(=O)/C=C/CN1C[C@@H]2OCCO[C@@H]2C1 [Example 33, (E)-N-(4-((3,4-Dichloro-2-fluorophenyl)amino)-7-(2-methoxyethoxy)quinazolin-6-yl)-4-((4aR,7aS)-tetrahydro-2H-[1,4]dioxino[2,3-c]pyrrol-6(3H)-yl)but-2-enamide] |  | 9.6 |  | 1.25 | 0.89 | 1.29 | 2.77 | 44.5 | 1.37 | 0.347 | 1.27
13 | O=C(/C=C/CN1C[C@@H]2OCCO[C@@H]2C1)Nc1ccc2ncnc(Nc3ccc4c(cnn4Cc4cccc(F)c4)c3)c2c1 [Example 26, (E)-N-(4-((1-(3-Fluorobenzyl)-1H-indazol-5-yl)amino)quinazolin-6-yl)-4-((4aR,7aS)-tetrahydro-2H-[1,4]dioxin[2,3-c]pyrrol-6(3H)-yl)but-2-enamide] | 14 | 1.6 | 89.3 |  |  |  |  |  |  |  | 
